Laboratory results published in ChEMBL document CHEMBL4004788, “Cyclin-Dependent Kinase (CDK) Inhibitors: Structure-Activity Relationships and Insights into the CDK-2 Selectivity of 6-Substituted 2-Arylaminopurines” (J Med Chem, 2017).
The source made the active and inactive calls. The rule behind the calls is not given here.

Tests used:
A-375 [1] = assay: Growth inhibition of Rb-proficient human A375 cells after 120 hrs by SRB assay; assay type: functional
Calu-6 [2] = assay: Growth inhibition of Rb-proficient human Calu6 cells after 120 hrs by SRB assay; assay type: functional
MDA-MB-231 [3] = assay: Growth inhibition of Rb-proficient human MDA-MB-231 cells after 120 hrs by SRB assay; assay type: functional
SJSA-1 [4] = assay: Growth inhibition of Rb-proficient human SJSA1 cells after 120 hrs by SRB assay; assay type: functional
Skut1B [5] = assay: Growth inhibition of Rb-proficient human SK-UT-1B cells after 120 hrs by SRB assay; assay type: functional
[6] = Chemical stability of the compound; assay type: physicochemical
Homo sapiens = species on record: Homo sapiens; assay: Inhibition of Cdk4/Cyclin D (unknown origin) relative to untreated control; settings: concentration not given here
[7] = biological target: Cyclin-dependent kinase 2 (Homo sapiens, UniProt P24941)
Description: Inhibition of CDK2 (unknown origin)

Calu-6 [8] = assay: Growth inhibition of Rb-proficient human Calu6 cells at 30 uM after 120 hrs by SRB assay; assay type: functional, cell-based
A-375 [9] = assay: Growth inhibition of Rb-proficient human A375 cells at 30 uM after 120 hrs by SRB assay; assay type: functional, cell-based
MDA-MB-231 [10] = assay: Growth inhibition of Rb-proficient human MDA-MB-231 cells at 30 uM after 120 hrs by SRB assay; assay type: functional, cell-based
SJSA-1 [11] = assay: Growth inhibition of Rb-proficient human SJSA1 cells at 30 uM after 120 hrs by SRB assay; assay type: functional, cell-based
Skut1B [12] = assay: Growth inhibition of Rb-proficient human SK-UT-1B cells at 30 uM after 120 hrs by SRB assay; assay type: functional, cell-based

SMILES	growth inhibition (GI) (A-375 [1])	growth inhibition (GI) (Calu-6 [2])	growth inhibition (GI) (MDA-MB-231 [3])	growth inhibition (GI) (SJSA-1 [4])	growth inhibition (GI) (Skut1B [5])	also measured
NS(=O)(=O)c1ccc(Nc2nc(OCC3CCCCC3)c3cn[nH]c3n2)cc1	Dose-dependent effect	Dose-dependent effect	Dose-dependent effect	Dose-dependent effect	Dose-dependent effect	–
COc1nc(N)nc2nc[nH]c12 [METHYLGUANINE]	–	–	–	–	–	Stability [6]: Unstable
NS(=O)(=O)c1ccc(Nc2nc(OCC3CCCCC3)c3cc[nH]c3n2)cc1	Dose-dependent effect	Dose-dependent effect	Dose-dependent effect	Dose-dependent effect	Dose-dependent effect	–
Nc1nc(OCC2CCCCC2)c2cn[nH]c2n1	–	–	–	–	–	inhibition (Homo sapiens): 0%
CCC(C)Oc1nc(N)nc2[nH]cnc12 (centres undefined)	–	–	–	–	–	IC50 [7]: 49 µM
NS(=O)(=O)c1ccc(Nc2nc(-c3cccc(-c4ccccc4)c3)c3nc[nH]c3n2)cc1	–	–	–	–	–	growth inhibition (GI) (Calu-6 [8]): inactive; growth inhibition (GI) (A-375 [9]): inactive; growth inhibition (GI) (MDA-MB-231 [10]): inactive; growth inhibition (GI) (SJSA-1 [11]): inactive; growth inhibition (GI) (Skut1B [12]): inactive
NS(=O)(=O)c1ccc(Nc2nc(OCC3CCCCC3)c3nc[nH]c3n2)cc1	Active	Active	Active	Active	Active	–
CC[C@@H](C)Oc1nc(Nc2ccc(S(N)(=O)=O)cc2)nc(N)c1C=O	–	–	–	–	–	IC50 [7]: 0.0008 µM
